For test [1], the system named is IL12Rβ2, IL18R1, and IL18RAP gene expression in T helper cells. Kind of test: IL-12-induced gene expression in T helper cells (quantitative RT-PCR). The format is cell-based, human. The note with it: TCR-stimulated T helper cells. As to the method: The effect of compounds and methods of the present invention on IL-12-induced gene expression in T helper cells was evaluated as follows. For these studies, analyses were performed to examine the effect of compounds of the present invention on expression of three genes induced by IL-12 in T helper cells: IL12Rβ2, IL18R1, and IL18RAP. (See, e.g., Saremeva et al. (2000) J hnmunol 165:1933-1938; Rogge et al. (1997) J Exp Med 185:825-831; and Nakahira et al. (2001) J Inmunol 167:1306-1312.)
Human cord blood naive T helper cells (AllCells LLC, Emeryville, Calif.) were stimulated (i.e., T cell receptor (TCR) stimulation) by seeding into 96-well culture dishes coated with 5 μg/ml anti-CD3 antibody (clone UCHT1, R&D Systems, Minneapolis, Minn.), and 5 μg/ml anti-CD28 antibody (clone ANC28.1/D10, Ancell Corporation, Bayport, Minn.), and cultured at 37° C., 5% CO2 in RPMI-1640 (Mediatech Inc., Herndon, Va.) containing 1% FBS, 1 U/ml penicillin-1 μg/ml streptomycin (Invitrogen Corporation, Carlsbad, California), and 50 U/ml IL-2 (Roche Diagnostics Corporation, Indianapolis, Ind.). At time of seeding, cells were cultured with media alone or with media containing 2 ng/ml IL-12 (R&D Systems, Minneapolis, Minn.) (to stimulate differentiation of the T helper cells into Th1 cells) and 10 μg/ml anti-IL-4 antibody (R&D Systems, Minneapolis, Minn.) (to block differentiation of the T helper cells into Th2 cells). Compound B or 1% DMSO (Veh) was added to the existing culture media and the cells cultured for an additional six days.
The cells were then lysed using Cell-to-Signal lysis buffer (Applied Biosystems, Foster City, Calif.) according to the manufacturer's instructions. The cell lysates were diluted with RNAse-free and DNAse-free water and used as templates in quantitative one-step duplex RT-PCR reactions using QuantiTect Multiplex RT-PCR Kit reagents (Qiagen Inc., Valencia, Calif.) and Taqman primers and probes (Applied Biosystems, Foster City, Calif.) as follows: IL18RAP Taqman primer/probe, catalog no. HS00187256M1; IL-12Rβ2 Taqman primer/probe, catalog no. HS00155486M1; EL18R1 Taqman primer/probe, catalog no. HS00175381M1; and TBET Taqman primer/probe, catalog no. HS00203436M1. RT-PCR reactions were performed according to the manufacturers' instructions. Changes in gene expression of IL12Rβ2, IL18R1, and IL18RAP following IL-12 addition in each sample were normalized relative to 18s ribosomal RNA gene expression measured in the same sample.

The subject of another test is naïve T helper cells. Nature of the test: Th1 cell differentiation: IFN-γ secretion after second and third TCR stimulation following washout. Type of test: cell-based, human. The note with it: another series, first TCR stimulation six days with IL-12, FIG. 8. As to the method: The effectiveness of compounds of the present invention at reducing Th1 differentiation was examined as follows. Th1 differentiation was induced by culturing anti-CD3 stimulated T cells in the presence of exogenous IL-12. Human cord blood naive T helper cells (AllCells LLC, Emeryville, Calif.) were stimulated (i.e., T cell receptor (TCR) stimulation) by seeding into 96-well culture dishes coated with 5 μg/ml anti-CD3 antibody (clone UCHT1, R&D Systems, Minneapolis, Minn.), and 5 μg/ml anti-CD28 antibody (clone ANC28.1/D10, Ancell Corporation, Bayport, Minn.), and cultured at 37° C., 5% CO2 in RPMI-1640 (Mediatech Inc., Hemdon, Va.) containing 1% FBS, 1 U/ml penicillin-1 μg/ml streptomycin (Invitrogen Corporation, Carlsbad, Calif.), and 50 U/ml IL-2 (Roche Diagnostics Corporation, Indianapolis, Ind.). At time of seeding, cells were cultured with media alone or with media containing 2 ng/ml IL-12 and 10 μg/ml anti-IL-4 to induce Th1 cell differentiation. […]
The cells were then collected, washed twice with RPMI-1640 media containing 1% FBS, and counted before equal numbers of cells per well were re-stimulated (second T cell receptor (TCR) stimulation following washout of all prior treatments) by re-seeding the cells into 96-well culture dishes coated with 5 μg/ml anti-CD3 antibody and 5 μg/ml anti-CD28 antibody. […] After 24 hours the conditioned media from the cells was collected and analyzed for IFN-γ levels using a MS2400 Tissue Culture Kit (MesoScale Technologies, Gaithersburg, Md.) according to the manufacturer's instructions.
Thirteen days after the second TCR stimulation described above, the cells were collected, washed twice with RPMI-1640 media containing 1% FBS, and counted before equal numbers of cells per well were stimulated a third time (third TCR stimulation) by re-seeding into 96-well culture dishes coated with 5 μg/ml anti-CD3 antibody and 5 μg/ml anti-CD28 antibody. […]
In another series of experiments, the effectiveness of compounds of the present invention at reducing Th1 differentiation was determined. […]

Where [2] appears, read: absence of IL-12, six days, normalized to 18s ribosomal RNA.

Molecules are shown by their SMILES.

`O=C(O)CNC(=O)c1ncc2cc(Oc3ccccc3)ccc2c1O` [Compound B, [(4-Hydroxy-7-phenoxy-isoquinoline-3-carbonyl)-amino]-acetic acid]: in test [1] (setting [2]), the “gene expression of IL12Rβ2” value is given as “decrease”, the “gene expression of IL18R1” value is reported as “decrease” and the “gene expression of IL18RAP” value is reported as “decrease”. Besides, in test [1] (presence of IL-12, six days), the “IL-12-mediated increase in IL12Rβ2 gene expression” value is “reduced”, the “IL-12-mediated increase in IL18R1 gene expression” value was “reduced” and the “IL-12-mediated increase in IL18RAP gene expression” value is reported as “reduced”.

For `Cc1ccc(Cl)c2cnc(C(=O)NCC(=O)O)c(O)c12` [Compound D, [(8-Chloro-4-hydroxy-5-methyl-isoquinoline-3-carbonyl)-amino]-acetic acid], in the test on naïve T helper cells, the “IFN-γ secretion following the second TCR stimulation” value is recorded as “reduced IFN-γ secretion”.

(Values after patent US20100144737A1, “METHODS FOR INHIBITING T HELPER CELL DIFFERENTIATION” (FibroGen, Inc., priority 2008, published 2010).)
